Data reported in patent publication US8449864B2 (The Board of Trustees of the Leland Stanford Junior …, priority 2006, dated 2013).
Peptide text beside a SMILES is read from it.

What was measured:
NTR1 = details: different tissues and cells from various species; cited from earlier work
PLCs containing PMCs = assay: NT degradation by peritoneal lavage cells (PLCs) containing peritoneal mast cells; format: cell-based, mouse; details: Kit+/+ PLCs pre-treated 15 min at 37° C. (chym 100 μM, CFp 10 μM, PCI 10 μg/ml, p03 100 nM); NT 10 μM, 30 min
Procedure: FIG. 5. Neurolysin and carboxypeptidase inhibitors prevent NT degradation by peritoneal mast cells. Kit^+/+ PLCs containing 5×10^4 PMCs were pre-treated for 15 min at 37° C. with one of the following protease inhibitors: chymostatin (chym, chymase inhibitor at 100 μM), CFp-Ala-Ala-Phe-pAB (CFp, […] at 10 μM only for PLCs), potato carboxypeptidase inhibitor (PCI, carboxypeptidase inhibitor at 10 μg/ml) and phosphodiepryl 03 (p03, neurolysin inhibitor at 100 nM for PLCs. Cells were then incubated with NT (10 μM) for 30 min at 37° C. Results are the percentage of NT remaining after incubation with cells compared to the starting concentration of NT (n=4-9 per group).
FIG. 12. (a), PLCs containing 1×10^4 PMCs obtained from either wild type C57BL/6 mice, Ntsr1-deficient (Ntsr1^−/−) mice or Ntsr2-deficient (Ntsr2^−/−) mice were incubated for 2 h with ^3H-5-hydroxytryptamine (3H-serotonin) at 37° C. and stimulated for 15 min at 37° C. with either ET-1 (4 μM) or NT (10 μM). (b), PLCs containing 1×10^4 PMCs obtained from C57BL/6 mice were incubated for 2 h with ^3H-serotonin and stimulated for 15 min with either ET-1 (4 μM) or NT (10 μM). In a separate set of experiments, cells were pre-incubated with BAPTA-AM (Sigma) ([…], 15 min at […]) before the addition of the stimuli. Results are mean ±SEM of 3 experiments. (c), mMC-CPA activity was measured in supernatants obtained from Kit^+/+ PLCs containing 5×10^4 PMCs that were stimulated for 30 min at 37° C. with either ET-1 (4 μM) or NT (10 μM). (d), PLCs containing 5×10^4 PMCs from C57BL/6J mice were pre-treated for 15 min at 37° C. with BAPTA-AM ([…], a Ca^2+ chelator that can reduce MC degranulation) and then incubated with NT (10 μM) for 30 min at 37° C. Results are expressed as the percentage of NT remaining after incubation with cells compared to that in samples of NT incubated in vehicle alone at 37° C. (data were pooled from triplicate determinations in two independent experiments that gave similar results). (e), Expression of mRNA for NT-receptors in the AtT20 neuroendocrine cell line, the mast cell line C1.MC/C57.1, C57BL/6J BMCMCs, Kit^+/+ BMCMCs and peritoneal mast cells purified from Kit^+/+ mice (PMCs).
NT, ET-1, C-reactive protein, and TNF measurements. Concentrations of NT, C-reactive protein, ET-1 and TNF were measured by ELISA (Bachem Peninsula Labs for NT; Biomedica, Vienna for C-reactive protein and ET-1; BD Biosciences for TNF). […] The detection limits for the ELISA kits were: 24 fmol/ml (NT), 0.048 fmol/ml (ET-1), 0.124 ng/ml (C-reactive protein) and […] (human TNF).

neurolysin (NLN) = biological target: T1, neurolysin (NLN) (Mus musculus, UniProt Q91YP2); assay: NT degradation by membrane and cytosol preparations of BMCMCs; format: biochemical; details: Pro-Ile 10 mM; NT 10 μM
T1 construct: membrane and cytosol preparations obtained from Kit^+/+ BMCMCs (2×10^6 cells/preparation); endogenous in cells; host or cells: Kit+/+ mouse bone marrow-derived cultured mast cells (BMCMCs), membrane and cytosol fractions
T1 sequence (Q91YP2 38-704): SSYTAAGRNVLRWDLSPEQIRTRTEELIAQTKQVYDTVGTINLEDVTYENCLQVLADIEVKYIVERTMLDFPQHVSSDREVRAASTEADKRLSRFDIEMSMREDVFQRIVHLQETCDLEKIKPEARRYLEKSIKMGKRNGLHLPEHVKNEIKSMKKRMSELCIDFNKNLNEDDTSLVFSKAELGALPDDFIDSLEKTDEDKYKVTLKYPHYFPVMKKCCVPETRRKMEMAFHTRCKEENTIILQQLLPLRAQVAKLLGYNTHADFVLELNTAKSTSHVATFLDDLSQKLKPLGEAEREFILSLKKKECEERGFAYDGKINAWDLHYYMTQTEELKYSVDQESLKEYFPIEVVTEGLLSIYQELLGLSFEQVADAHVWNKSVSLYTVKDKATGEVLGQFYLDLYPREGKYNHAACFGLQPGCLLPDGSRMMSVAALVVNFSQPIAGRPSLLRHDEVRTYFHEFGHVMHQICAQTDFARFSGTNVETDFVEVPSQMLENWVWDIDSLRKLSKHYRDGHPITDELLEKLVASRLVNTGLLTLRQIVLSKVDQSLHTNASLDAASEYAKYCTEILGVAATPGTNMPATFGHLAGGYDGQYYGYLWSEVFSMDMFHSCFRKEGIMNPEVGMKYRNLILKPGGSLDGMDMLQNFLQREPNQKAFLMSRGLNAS
Procedure: FIG. 8. MC-associated neurolysin (NLN) contributes to the MCs' ability to reduce NT-induced hypotension. (a) Identification of NLN in the membrane and cytosol fractions of C1.MC/C57.1 MCs and C57BL/6J BMCMCs. […] Results are expressed as the percentage of NT remaining after incubation with membrane or cytosol preparations compared to that in samples of NT incubated in vehicle alone (n=3). (c, d) Degradation of NT (10 μM) by A23187 (5 μM)-activated Kit^+/+ BMCMCs (2×10^5) that were pre-treated with either empty vector, Neurolysin-short hairpin RNA (NLN-shRNA) or mouse MC carpoxypeptidase A-short hairpin RNA (mMC-CPA-shRNA). Cells were incubated with NT for 30 min at 37° C. Results are expressed as the percentage of NT remaining in the samples compared to that in samples of NT incubated in vehicle alone at 37° C. (n=3). (e) Changes in MAP versus baseline levels (=“0”, measured 3 min after injection of 300 μl saline, i.p.) at various times after injection of NT (6 nmol in 300 μl saline, i.p.) in Kit^W/W-v mice which had been engrafted i.p. with Kit^+/+ BMCMCs treated with either empty vector (empty vector MCs→Kit^W/W-v), NLN-shRNA (NLN-shRNA MCs→Kit^W/W-v) or mMC-CPA-shRNA (mMC-CPA-shRNA MCs→Kit^W/W-v). (f) MCs in the peritoneal cavity (arrows, MCs; scale bars, 100 μm; May Grunwald-modified Giemsa stain) and mesentery (arrows, MCs; scale bars, 100 μm; Czaba stain). […]

PMCs = assay: Internalization of rhodamine-labelled peptide by PMCs (flow cytometry, confocal microscopy); format: cell-based, mouse
Procedure: FIG. 11. […] P<0.0001 versus corresponding NT- or ET-1-injected groups. […] (b) Flow cytometry analysis and confocal microscopy of C57BL/6 PMCs incubated with NT-rhodamine (50 μM) (red) at 4° C. (0 min) or placed at 37° C. for 5 or 15 min. PMCs were identified among other PLCs by flow cytometry by staining of IgE bound to the MCs (green). […] (c) PLCs containing 5×10^4 PMCs from either C57BL/6, Ntsr1^−/− or Ntsr2^−/− mice were incubated with NT (10 μM) for 30 min at 37° C. Results are expressed as the percentage of NT remaining after incubation with cells compared to that in samples of NT incubated in vehicle alone at 37° C. (data were pooled from triplicate determinations in two independent experiments that gave similar results). (d,e) Changes in MAP vs. baseline levels (=“0”, measured 3 min after injection of 300 μl saline, i.p.) at various times after injection of NT (6 nmol in 300 μl saline, i.p.) (d), and NT levels in the peritoneal fluids of these mice at 30 min after injection (e), in Kit^W/W-v mice that had been engrafted i.p. with BMCMCs of C57BL/6-Ntsr1^+/+ or -Ntsr1^−/− origin. (f) Survival after CLP (50% ligation; single puncture with 22 G needle) in Kit^W/W-v mice that had been engrafted i.p. with BMCMCs of C57BL/6-Ntsr1^+/+ or -Ntsr1^−/− origin.
FIGS. 19a-19f. (a-c) Flow cytometry analysis and (d, e) confocal microscopy of Ntsr+/+ (a, c) or Ntsr1−/−2−/− (b) PMCs pre-loaded with either NT-rhodamine (a, b) or scrambled peptide-rhodamine (c) ([…]) (red) that were placed at 37° C. for the indicated times. Control cells pre-loaded with either NT-rhodamine or scrambled peptide-rhodamine were maintained at 4° C. (“0 min”). PMCs were identified among other peritoneal lavage cells (PLCs) in confocal microscopy by green staining of IgE bound to the PMC surface and in flow cytometry by staining of c-Kit receptors. (f) Fold increase in mean fluorescence intensity by flow cytometry in PMCs versus other (non mast cell) PLCs obtained from Ntsr+/+ mice incubated for 15 min at 37° C. with NT-rhodamine when compared to control cells that were maintained at 4° C. for 15 min. Data are representative of (a-e) or pooled from (f) the three experiments performed, each of which gave similar results.
Flow cytomety and confocal microscopy. Cells were incubated for 16 h in DMEM+10% FCS+2 μg/ml IgE (hybridoma H1-DNP-ε26). Cells were washed and resuspended in DMEM+10% fetal calf serum (FCS)+NT-rhodamine (AnaSpec) (50 μM) and placed at 4° C. for 1 h. Some cells then were placed at 37° C. for 5 or 15 min. IgE Abs bound to PMCs were stained with FITC-conjugated anti-mouse IgE Abs (BD Biosciences). Levels of surface IgE were analyzed by flow cytometry, as described above.

COc1cccc(OC)c1-c1cc(C(=O)NC2(C(=O)O)C3CC4CC(C3)CC2C4)nn1-c1ccnc2cc(Cl)ccc12 (stereo not drawn) [SR48692]
affinity for NTR1 (NTR1): nanomolar affinity

CC(C)C[C@H](NC(=O)[C@@H](NC(=O)N[C@@H](Cc1ccccc1)C(=O)O)[C@@H]1CCN=C(N)N1)C(=O)N[C@H](C=O)Cc1ccccc1 [chymostatin]
NT degradation by PLCs in presence of protease inhibitor (PLCs containing PMCs): did not prevent NT degradation

CC[C@H](C)[C@H](NC(=O)[C@@H]1CCCN1)C(=O)O [Pro-Ile] (H-Pro-Ile-OH)
NT degradation by membrane or cytosol preparations of BMCMCs (neurolysin (NLN)): almost completely inhibited

PCI: potato carboxypeptidase inhibitor; mouse MC carboxypeptidase A (mMC-CPA) inhibitor (QQHADPICNKPCKTHDDCSGAWFCQACWNSARTCGPYVG; UniProt P01075 1-39, looked up)
NT degradation by PLCs in presence of protease inhibitor (PLCs containing PMCs): significantly inhibited

CC(NC(=O)C(C)NC(CCc1ccccc1)C(=O)O)C(=O)NC(Cc1ccccc1)C(=O)Nc1ccc(C(=O)O)cc1 (stereo not drawn) [CFp-Ala-Ala-Phe-pAB]
NT degradation by PLCs in presence of protease inhibitor (PLCs containing PMCs): did not prevent NT degradation

NT-rhodamine: rhodamine-labelled NT
binding and internalization by PMCs (PMCs; C57BL/6 PMCs, 50 μM, 37° C. for 5 or 15 min): bound and internalized
internalization by PMCs lacking Ntsr1 and Ntsr2 (PMCs; Ntsr1−/−2−/− PMCs, 10 µM, 37° C.): peptide internalization did not occur
uptake by PMCs compared with non mast cells of the peritoneal cavity (PMCs; Ntsr+/+ PLCs, 15 min at 37° C.): more efficient
internalization by PMCs (PMCs; Ntsr+/+ PMCs, 10 µM, 37° C.): able to internalize
